Assay results from patent publication EP0326331B1, “Substituted quinolines and cinnolines” (Dow AgroSciences LLC, priority 1988, dated 1989).
Read-outs that look alike come from different tables or passages of the source.

Key:
Assay type in all cases: in vivo
[1] = test system: Botrytis cinerea (gray mold); experiment: Test 1 greenhouse foliar spray screen, gray mold on grape berries; details: disease control rating, spray on grape berries, 400 ppm (+++ at 100 ppm)
[2] = test system: Cercospora beticola (leaf spot); experiment: Test 1 greenhouse foliar spray screen, leaf spot on sugar beet; details: disease control rating, foliar spray on sugar beet, 400 ppm (+++ at 100 ppm)
corn rootworm = experiment: Mite/insect screen, CRW; details: percent mortality; for mortality at 12 ppm / mortality at 24 ppm: read-out: CRW RESULTS %
Summary of the method: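 Read-out: % mortality after standard exposure. Formulation: acetone/alcohol (50:50) with emulsifiers at 23 g and 13 g per liter, water-diluted to final test levels.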

[3] = test system: Twospotted spider mites (Tetranychus urticae Koch); experiment: Mite/insect screen, SM; details: for mortality at 200 ppm / mortality at 400 ppm: Tetranychus urticae, read-out: SM RESULTS %; for mortality at 200 ppm / mortality at 400 ppm / SM RESULTS %: percent mortality; for activity as miticides: summary statement in the description
Summary of the method: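 Foliar spray to runoff (10 psi), 1 h drying; aqueous dilutions from acetone/alcohol emulsifier stock. Mortality (%) after standard exposure.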

[4] = test system: Pyricularia oryzae (rice blast); experiment: whole plant or invertebrate; details: disease control rating, foliar spray on rice, 400 ppm (+++ at 100 ppm)
[5] = test system: melon aphids (Aphis gossypii Glover); experiment: Mite/insect screen, MA; details: percent mortality; for mortality at 200 ppm / mortality at 400 ppm: Aphis gossypii, read-out: MA RESULTS %
Summary of the method: (§1)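 Read-out: percent mortality after standard exposure periods. Test solutions were water dilutions of compound dissolved in acetone/alcohol (50:50) with emulsifier blends; leaves were sprayed to runoff on both surfaces and air-dried for one hour before exposure.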

[6] = test system: Erysiphe graminis tritici (powdery mildew); experiment: Test 1 greenhouse foliar spray screen, powdery mildew on wheat; details: disease control rating, foliar spray on wheat, 400 ppm (+++ at 100 ppm)
[7] = test system: Puccinia recondita tritici (leaf rust); experiment: Test 1 greenhouse foliar spray screen, leaf rust on wheat; details: disease control rating, foliar spray on wheat, 400 ppm (+++ at 100 ppm)
[8] = test system: Pseudoperonospora cubensis (downy mildew); experiment: Test 1 greenhouse foliar spray screen, downy mildew on squash; details: disease control rating, foliar spray on squash, 400 ppm (+++ at 100 ppm)
[9] = test system: Septoria tritici (leaf blotch); experiment: Test 1 greenhouse foliar spray screen, leaf blotch on wheat; details: disease control rating, foliar spray on wheat, 400 ppm (+++ at 100 ppm)
[10] = test system: Venturia inaequalis (apple scab); experiment: Test 1 greenhouse foliar spray screen, apple scab on apple seedling; details: disease control rating, foliar spray on apple seedling, 400 ppm (+++ at 100 ppm)
[11] = test system: southern armyworm (Spodopetra eridania Cramer); experiment: Mite/insect screen, SAW; details: percent mortality; for mortality at 200 ppm / mortality at 400 ppm: Spodoptera eridania, read-out: SAW RESULTS %
Summary of the method: as §1

[12] = foliar, rate 200 ppm, foliar spray on squash
[13] = foliar, rate 400 ppm, foliar spray on squash

| SMILES | GRAY MOLD [1] | LEAF SPOT [2] | mortality at 12 ppm (corn rootworm; CRW RATE 12.00 PPM) | mortality at 24 ppm (corn rootworm; CRW RATE 24.00 PPM) | mortality at 200 ppm ([3]; SAW, SM & MA RATE 200 PPM) | mortality at 400 ppm ([3]; SAW, SM & MA RATE 400 PPM) | RICE BLAST [4] | mortality at 200 ppm ([5]; SAW, SM & MA RATE 200 PPM) | mortality at 400 ppm ([5]; SAW, SM & MA RATE 400 PPM) | POWD MDEW [6] | LEAF RUST [7] | DOWN MDEW [8] | LEAF BLOT [9] | APPL SCAB [10] | mortality at 200 ppm ([11]; SAW, SM & MA RATE 200 PPM) | mortality at 400 ppm ([11]; SAW, SM & MA RATE 400 PPM) | further results |
| --- | --- | --- | --- | --- | --- | --- | --- | --- | --- | --- | --- | --- | --- | --- | --- | --- | --- |
| COc1ccc(CCNc2ccnc3cc(C(F)(F)F)ccc23)cc1 [Example 42, N-[2-(4-methoxyphenyl)ethyl]-7-(trifluoromethyl)-4-quinolinamine] | - (0-19% control at 400 ppm) | +++ (90-100% control at 100 ppm) | 0% | 0% | 0% | 0% | + (20-89% control at 400 ppm) | 0% | 0% | +++ (90-100% control at 100 ppm) | ++ (90-100% control at 400 ppm) | +++ (90-100% control at 100 ppm) | - (0-19% control at 400 ppm) | - (0-19% control at 400 ppm) | 0% | 0% | – |
| COc1ccc(CCNc2ccc3c(NCCc4ccc(OC)cc4)ccnc3c2)cc1 [Example 187, N,N'-bis[2-(4-methoxyphenyl)ethyl]-4,7-quinolinediamine] | - (0-19% control at 400 ppm) | - (0-19% control at 400 ppm) | – | – | – | – | + (20-89% control at 400 ppm) | – | – | - (0-19% control at 400 ppm) | + (20-89% control at 400 ppm) | +++ (90-100% control at 100 ppm) | - (0-19% control at 400 ppm) | - (0-19% control at 400 ppm) | – | – | mortality at 12 ppm (corn rootworm; CRW rate 12.00 ppm): 0%; mortality at 24 ppm (corn rootworm; CRW rate 24.00 ppm): 0%; mortality at 200 ppm [3, 12]: 0%; mortality at 400 ppm [3, 13]: 0%; mortality at 200 ppm [5, 12]: 0%; mortality at 400 ppm [5, 13]: 0%; mortality at 200 ppm [11, 12]: 0%; mortality at 400 ppm [11, 13]: 0% |
| Clc1cccc2c(NCCc3ccc4ccccc4c3)ccnc12 [Example 156, 8-chloro-N-[2-(2-naphthyl)ethyl]-4-quinolinamine] | - (0-19% control at 400 ppm) | - (0-19% control at 400 ppm) | 0% | – | 0% | – | + (20-89% control at 400 ppm) | 0% | – | - (0-19% control at 400 ppm) | + (20-89% control at 400 ppm) | +++ (90-100% control at 100 ppm) | - (0-19% control at 400 ppm) | - (0-19% control at 400 ppm) | 0% | – | CRW RESULTS % (corn rootworm; CRW RATE 12.00 PPM): 0%; SM RESULTS % ([3]; SAW, SM & MA RATE 200 PPM): 0%; MA RESULTS % ([5]; SAW, SM & MA RATE 200 PPM): 0%; SAW RESULTS % ([11]; SAW, SM & MA RATE 200 PPM): 0% |
| Cc1ccc(CCNc2ccnc3c(F)cccc23)s1 [Example 162, 8-fluoro-N-[2-(5-methyl-2-thienyl)ethyl]-4-quinolinamine] | - (0-19% control at 400 ppm) | - (0-19% control at 400 ppm) | 0% | – | 0% | – | + (20-89% control at 400 ppm) | 0% | – | + (20-89% control at 400 ppm) | ++ (90-100% control at 400 ppm) | +++ (90-100% control at 100 ppm) | - (0-19% control at 400 ppm) | - (0-19% control at 400 ppm) | 0% | – | – |
| CC(=O)N(CCc1ccc(C(C)C)cc1)c1ccnc2c(F)cccc12 [Example 129, N-[2-[4-(i-propyl)phenyl]ethyl]-N-(8-fluoro-4-quinolinyl)acetamide] | - (0-19% control at 400 ppm) | - (0-19% control at 400 ppm) | 0% | 0% | 0% | 0% | + (20-89% control at 400 ppm) | 0% | 0% | - (0-19% control at 400 ppm) | ++ (90-100% control at 400 ppm) | + (20-89% control at 400 ppm) | - (0-19% control at 400 ppm) | + (20-89% control at 400 ppm) | 0% | 0% | – |
| FC(F)(F)c1ccc2c(NCCc3ccc(Cl)cc3Cl)ccnc2c1 [Example 104, N-[2-(2,4-dichlorophenyl)ethyl]-7-(trifluoromethyl)-4-quinolinamine] | - (0-19% control at 400 ppm) | + (20-89% control at 400 ppm) | 0% | 0% | 0% | 0% | - (0-19% control at 400 ppm) | 0% | 0% | - (0-19% control at 400 ppm) | - (0-19% control at 400 ppm) | ++ (90-100% control at 400 ppm) | - (0-19% control at 400 ppm) | + (20-89% control at 400 ppm) | 0% | 60% | – |
| Fc1ccc2nccc(NCCc3ccc(Cl)cc3)c2c1 [Example 56, N-[2-(4-chlorophenyl)ethyl]-6-fluoro-4-quinolinamine] | - (0-19% control at 400 ppm) | +++ (90-100% control at 100 ppm) | 0% | 0% | 0% | 0% | ++ (90-100% control at 400 ppm) | 0% | 0% | - (0-19% control at 400 ppm) | ++ (90-100% control at 400 ppm) | +++ (90-100% control at 100 ppm) | + (20-89% control at 400 ppm) | - (0-19% control at 400 ppm) | 100% | 80% | activity as miticides [3]: particularly excellent activity |
| Fc1cccc2c(NCCc3ccc(Cl)cc3)ccnc12 [Example 96, N-[2-(4-chlorophenyl)ethyl)-8-fluoro-4-quinolinamine] | - (0-19% control at 400 ppm) | +++ (90-100% control at 100 ppm) | 0% | – | 0% | – | +++ (90-100% control at 100 ppm) | 0% | – | + (20-89% control at 400 ppm) | +++ (90-100% control at 100 ppm) | +++ (90-100% control at 100 ppm) | +++ (90-100% control at 100 ppm) | - (0-19% control at 400 ppm) | 100% | – | CRW RESULTS % (corn rootworm; CRW RATE 12.00 PPM): 0%; SM RESULTS % ([3]; SAW, SM & MA RATE 200 PPM): 0%; activity as miticides [3]: particularly excellent activity; MA RESULTS % ([5]; SAW, SM & MA RATE 200 PPM): 0%; SAW RESULTS % ([11]; SAW, SM & MA RATE 200 PPM): 100% |
